The compounds below were run against Amyloid-beta precursor protein (Homo sapiens, UniProt P05067) (assay: Inhibition of amyloid beta42 fibril formation by thioflavin T formation).
Sequence of Amyloid-beta precursor protein (P05067 whole entry): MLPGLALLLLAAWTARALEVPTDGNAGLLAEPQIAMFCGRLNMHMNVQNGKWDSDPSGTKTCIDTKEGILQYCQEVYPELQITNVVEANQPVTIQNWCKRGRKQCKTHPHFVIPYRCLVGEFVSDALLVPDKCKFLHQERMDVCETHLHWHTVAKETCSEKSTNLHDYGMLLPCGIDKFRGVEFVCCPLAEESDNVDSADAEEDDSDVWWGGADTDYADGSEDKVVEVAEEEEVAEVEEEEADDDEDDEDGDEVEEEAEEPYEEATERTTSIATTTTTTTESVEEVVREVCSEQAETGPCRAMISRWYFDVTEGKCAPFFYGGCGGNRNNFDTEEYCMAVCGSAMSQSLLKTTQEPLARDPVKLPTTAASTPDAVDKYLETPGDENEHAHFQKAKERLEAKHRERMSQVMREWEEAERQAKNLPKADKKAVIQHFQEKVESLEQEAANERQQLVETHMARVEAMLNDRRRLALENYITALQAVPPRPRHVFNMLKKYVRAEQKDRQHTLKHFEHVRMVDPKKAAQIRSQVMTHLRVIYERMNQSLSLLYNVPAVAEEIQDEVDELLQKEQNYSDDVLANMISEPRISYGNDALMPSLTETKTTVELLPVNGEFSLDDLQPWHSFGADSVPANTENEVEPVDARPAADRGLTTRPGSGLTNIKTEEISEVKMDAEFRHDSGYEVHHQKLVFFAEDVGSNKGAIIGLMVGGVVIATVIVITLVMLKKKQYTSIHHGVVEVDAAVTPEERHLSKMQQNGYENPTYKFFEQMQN

SMILES | IC50
CN(C)c1ccc(/C=C/c2cc3ccc(Br)cc3o2)cc1 | 1340 nM
CN(C)c1ccc(/C=C/c2cc3cc(I)ccc3o2)cc1 | 170 nM
CN(C)c1ccc(/C=C/c2cc3cc(O)ccc3o2)cc1 | 160 nM
COc1ccc2oc(/C=C/c3ccc(N)cc3)cc2c1 | 820 nM
CN(C)c1ccc(/C=C/c2cc3cc(Br)ccc3o2)cc1 | 470 nM
CN(C)c1ccc(/C=C/c2cc3ccc(O)cc3o2)cc1 | 3620 nM
CN(C)c1ccc(/C=C/c2cc3ccccc3o2)cc1 | 2300 nM
CNc1ccc(/C=C/c2cc3cc(O)ccc3o2)cc1 | 2160 nM
CN(C)c1ccc(/C=C/c2cc3ccc(Cl)cc3o2)cc1 | 3210 nM
CN(C)c1ccc(/C=C/c2cc3ccc(I)cc3o2)cc1 | 2800 nM
CNc1ccc(/C=C/c2cc3ccc(OC)cc3o2)cc1 | 800 nM
CN(C)c1ccc(/C=C/c2cc3ccc(F)cc3o2)cc1 | 2190 nM
Cc1ccc2cc(/C=C/c3ccc(N(C)C)cc3)oc2c1 | 3440 nM
COc1ccc2oc(/C=C/c3ccc(N(C)C)c(OC)c3)cc2c1 | 160 nM
CNc1ccc(/C=C/c2cc3cc(OC)ccc3o2)cc1 | 80 nM
COc1ccc2oc(/C=C/c3ccc(N(C)C)cc3)cc2c1 | 810 nM
Nc1ccc(/C=C/c2cc3cc(O)ccc3o2)cc1 | 2950 nM
COc1ccc2cc(/C=C/c3ccc(N)cc3)oc2c1 | 5440 nM
COc1ccc2cc(/C=C/c3ccc(N(C)C)cc3)oc2c1 | 70 nM
COc1ccc2cc(/C=C/c3ccc(N(C)C)c(OC)c3)oc2c1 | 530 nM
CN(C)c1ccc(/C=C/c2cc3cc(F)ccc3o2)cc1 | 1980 nM
CN(C)c1ccc(/C=C/c2cc3cc(Cl)ccc3o2)cc1 | 200 nM
Cc1ccc2oc(/C=C/c3ccc(N(C)C)cc3)cc2c1 | 130 nM

From ChEMBL document CHEMBL1144235, “Aminostyrylbenzofuran derivatives as potent inhibitors for Abeta fibril formation” (Bioorg Med Chem Lett, 2008)
